Converted amounts (≈) assume the structure as drawn.
What was measured:
CEM/A7R = assay: Growth of drug resistant leukaemia cell line CEM/A7R; format: cell-based, human
Description: Thus, this cell line is normally resistant to a variety of naturally derived chemotherapeutic agents.
(§1) Therefore, C4 can overcome drug resistance which is a common problem in acute leukemia.

mouse thyoma E3 cells = assay: Growth of mouse thymoma E3 cells; format: cell-based; conditions: read-out: Ic50 concentration
Description: as §1

CEM/A7 = assay: Growth of leukaemia cell line CEM/A7; format: cell-based, human
Description: as §1

p38 = p38 activation in LS174T cells; format: cell-based, human; conditions: 3 hours; C3 5, 10 μg/ml; Cisplatin 25, 50 μg/ml
Experimental: (§2) P38 was not affected by C3 but was activated by Cisplatin.
The stress related p38 pathway was also investigated in LS174T cells following anti-Cripto-1 Mab treatment. p38 activation occurred following 48 hours of Mab exposure, when the level of activated JNK declined. p38 was further activated at 72 hours when elevated JNK returned to basal level (FIG. 8D). […] The potentiation of Cisplatin cytotoxicity by anti-Cripto-1 Mabs (FIG. 1) is accompanied by an increase in JNK phosphorylation (FIG. 8A) and p38 MAPK (FIG. 8B).

JNK/SAPK = assay: JNK activation in LS174T cells; format: cell-based, human; conditions: 3 hours; C3 5, 10 μg/ml; Cisplatin 25, 50 μg/ml
Experimental: as §2
The role of JNK and p38 activation in anti-Cripto-1 mediated apoptosis was investigated in colon cancer LS17T cell line using different concentration of Mabs and various times of incubation. In particular, JNK/SPAK was activated in LS174T cells following 3 hours incubation with anti-Cripto-1 Mab in a dose dependent manner (FIG. 8A). JNK activation was at the highest level after 24 hours of exposure (FIGS. 8B and 8D), and declined within 48 h, returning to basal level at 72 hours of incubation (FIG. 8D) indicating JNK activation by anti-Cripto1 antibodies is time dependent

SMILES	resistance to Epirubicin compared to E3 (CEM/A7R) [fold]	IC50 (mouse thyoma E3 cells) [µg/mL]	resistance to Epirubicin compared to E3 (CEM/A7)	p38 activation (p38)	JNK activation (JNK/SAPK)
COc1cccc2c1C(=O)c1c(O)c3c(c(O)c1C2=O)C[C@@](O)(C(=O)CO)C[C@@H]3O[C@H]1C[C@H](N)[C@@H](O)[C@H](C)O1 [Epirubicin]	~40	0.02 (≈ 0.0368 µM)	around 80 fold		
N.N.[Cl][Pt][Cl] [Cisplatin]				activated	induced

From US7318924B2, “Antibodies against cancer” (The Austin Research Institute, priority 2001, dated 2008)
